From US12714696B2, “Low dose fluralaner compositions for protection against parasitic invertebrate pest” (VIRBAC, priority 2019, dated 2026)
Like-named read-outs stand apart in the source and are kept apart here.

Key:
Rhipicephalus sanguineus [1] = assay: Efficacy against ticks on dogs, oral 250/35/600 μg/kg study; format: in vivo; conditions: for Percentage efficacy using geometric mean, live ticks / live ticks, geometric mean, Group 2: oral 250/35/600 μg/kg regimen, dogs
Protocol: The second objective is to investigate the pharmacodynamics between the fluralaner plasmatic dose and the effectiveness against ticks. • IVP: Investigational Veterinary Product, is pure Fluralaner+DMSO (250 μg/kg on Days 0 to 3 (0.25 mL/kg), then 35 μg/kg on Days 4 to 9 (0.35 mL/kg), then 600 μg/kg on Day 11) • Control product is DMSO (0.25 mL/kg on Days 0 to 3, then 0.35 mL/kg on Days 4 to 9)
Dogs were infested with approximately 50 (±4) viable, adult, unfed R. sanguineus ticks on Days 1, 3, 5, 8, 10, 12, 16, 22, 26 and 30 to assess efficacy. Ticks will be removed and counted on Days 3, 5, 7 (48 hours±2 hours after infestation) and 9, 11, 13, 17, […], 27, 32 (24 hours±2 hours after infestation). Dogs were also infested with approximately 100 (±8) viable, adult, C. felis fleas on Day −6 (±1 day) for randomisation purposes and on Day 2 to assess efficacy. Fleas will be removed and counted on Days −5 (+1 day) and 3 (24 hours±2 hours after infestation).
The efficacy against ticks and fleas were calculated for the study groups at each assessment day according to the formulas given below.
Efficacy calculations based on geometric mean values were, however, also reported on. Such calculations were based on the geometric mean values of the tick or flea (count+1) data. One (1) was subsequently subtracted from the result to obtain a meaningful value for the geometric mean of each group.
Efficacy was calculated as follows: Efficacy (%)=100×(Mc−Mt)/Mc, where: • Mc=Mean number of live ticks (categories 1 to 2) or live fleas on dogs in the negative control group (group 1) at a specific time point. • Mt=Mean number of live ticks (categories 1 to 2) or live fleas on dogs in the IVP group (group 2) • at a specific time point.

[2] = Pharmacokinetic profile of Bravecto spot-on after single topical administration on dogs; conditions: dog, in vivo, topical or ocular, 6250 ug/kg, Bravecto spot-on single topical 6250 μg/kg
Protocol: The objective of the study is to determine the pharmacokinetic profile of the Bravecto spot-on containing fluralaner after a single topical administration on dogs at a dose rate of 6250 μg/kg after feeding. • IVP: Investigational Veterinary Product, is Bravecto spot-on containing fluralaner at a dose rate of 6250 μg/kg (22.3112 μL/kg) on Day 0
Ten dogs were enrolled in the study of which six were included meeting the inclusion criteria. In addition, veterinary examinations (Day −14 and Day −2±one day), general health observations (all days) and weighing of all dogs (Day −2±one day) were performed.
On Day 0, all dogs will receive the IVP at a dose rate of 6250 μg/kg. The quantity of IVP to be administered will be calculated according to the dog's individual body weight. Dogs will be observed hourly (±15 minutes) for four hours after administration on Day 0.
Blood specimens will be collected from all dogs on Days −14 and −7 for clinical chemistry and hematology for inclusion and for pharmacokinetic analysis prior to IVP treatment on Day 0 and on Days 1 (+24 hours), 3 (+72 hours), 5 (+120 hours), 7 (+168 hours), 10 (+240 hours), 14 (+336 hours), 21 (+504 hours), 28 (+672 hours), 35 (+840 hours), 42 (+1008 hours), 49 (+1176 hours), 56 (+1344 hours) and 60 (+1440 hours).
The PK parameters of fluralaner were calculated using a non-compartmental approach.
The following rules were applied for the calculation of the PK parameters: • All the plasma concentrations, validated by the bioanalytical laboratory, were used for the PK analysis. • The actual blood sampling times were used throughout. • Concentrations below the Limit of Quantification (LOQ) value were considered as zero from time zero (pre-dose) up to the time at which the first quantifiable concentration above the LOQ value was observed. Concentrations below the LOQ value between two quantifiable concentrations were considered as missing. Trailing concentrations below the LOQ value were not used in calculations.
Cmax the observed maximum concentration in plasma measured after dosing.
tmax the time at which Cmax was apparent.
λz the terminal rate constant (λz) was estimated by log-linear regression analysis on data points visually assessed, to be on the terminal log-linear phase. For the slope of the terminal elimination phase to be accepted as reliable, the following criteria were used: • the terminal data points were apparently randomly distributed about a single straight line (on visual inspection), • a minimum of three data points, including the last measured data point and excluding Cmax, were available for the regression.
t1/2 the terminal plasma half-life (t1/2) was calculated according to the following equation: […]
AUC0-t the area under the concentration-time curve from time zero (pre-dose) to the time of last quantifiable concentration (t) was calculated using a linear trapezoidal method.
[AUC0-∞=AUC0-t+(Ct/λz)], where Ct was the observed concentration of drug for the last sample on the PK profile in which the drug was detected, and λz was as defined above.
The extrapolated area under the curve, expressed as a percentage of the total area, AUCinf, was also calculated as: Area Extra (%)=(AUC0-∞−AUC0-t)/AUC0-∞*100%.

Rhipicephalus sanguineus [3] = assay: Efficacy against ticks on dogs, oral 250/35/600 μg/kg study; format: in vivo

Question: With `Cc1cc(C2=NOC(c3cc(Cl)cc(Cl)c3)(C(F)(F)F)C2)ccc1C(=O)NCC(=O)NCC(F)(F)F` (stereo not drawn) [fluralaner, Fluralaner] as the molecule, how does the “Percentage efficacy using geometric mean, live ticks” value (“Percentage efficacy” below) (Rhipicephalus sanguineus [1]; Day 3) read?
Answer: 100

Question: And the “live ticks, geometric mean, Group 2” value (Rhipicephalus sanguineus [1]; Day 3)?
Answer: 0.0

Question: And the “Percentage efficacy” value (Rhipicephalus sanguineus [1]; Day 5)?
Answer: 100

Question: And the “live ticks, geometric mean, Group 2” value (Rhipicephalus sanguineus [1]; Day 5)?
Answer: 0.0

Question: What about the “Percentage efficacy” value (Rhipicephalus sanguineus [1]; Day 7) of the same molecule?
Answer: 100

Question: And the “live ticks, geometric mean, Group 2” value (Rhipicephalus sanguineus [1]; Day 7)?
Answer: 0.0

Question: And the “Percentage efficacy” value (Rhipicephalus sanguineus [1]; Day 9)?
Answer: 47.3

Question: What about the “live ticks, geometric mean, Group 2” value (Rhipicephalus sanguineus [1]; Day 9) of the same molecule?
Answer: 11.8

Question: And the “Percentage efficacy” value (Rhipicephalus sanguineus [1]; Day 11)?
Answer: 77.8

Question: What about the “live ticks, geometric mean, Group 2” value (Rhipicephalus sanguineus [1]; Day 11) of the same molecule?
Answer: 7.8

Question: What about the “Percentage efficacy” value (Rhipicephalus sanguineus [1]; Day 13) of the same molecule?
Answer: 85.0

Question: What about the “live ticks, geometric mean, Group 2” value (Rhipicephalus sanguineus [1]; Day 13) of the same molecule?
Answer: 4.5

Question: What about the “Percentage efficacy” value (Rhipicephalus sanguineus [1]; Day 17) of the same molecule?
Answer: 80.8

Question: What about the “live ticks, geometric mean, Group 2” value (Rhipicephalus sanguineus [1]; Day 17) of the same molecule?
Answer: 5.1

Question: What about the “Percentage efficacy” value (Rhipicephalus sanguineus [1]; Day 23) of the same molecule?
Answer: 46.1

Question: What about the “Percentage efficacy” value (Rhipicephalus sanguineus [1]; Day 27) of the same molecule?
Answer: 78.9

Question: And the “live ticks, geometric mean, Group 2” value (Rhipicephalus sanguineus [1]; Day 27)?
Answer: 6.8

Question: What about the “Percentage efficacy” value (Rhipicephalus sanguineus [1]; Day 31) of the same molecule?
Answer: 56.1

Question: And the “efficacy against ticks from the first day after treatment” value (Rhipicephalus sanguineus [1]; infestation at D1, first measurement at D3)?
Answer: present

Question: And the efficacy against ticks (Rhipicephalus sanguineus [1]; period during the first four doses of 250 μg/kg per day and the following three doses of 35 μg/kg per day)?
Answer: 100%

Question: What about the AUC(0-t) ([2]; dogs without 86D 6FA, n=5, read-out: fluralaner AUC0-t, Mean) of the same molecule?
Answer: 181 µg·h/mL

Question: What about the Cmax ([2]; dogs without 86D 6FA, n=5, read-out: fluralaner Cmax, Mean) of the same molecule?
Answer: 238 ng/mL

Question: What about the half-life ([2]; dogs without 86D 6FA, n=5, read-out: fluralaner t½ (terminal half-life), Mean (converted)) of the same molecule?
Answer: 16.2 days

Question: And the Cmax ([2]; dogs, read-out: maximum concentration (Cmax), range)?
Answer: 161 to 353 ng/mL

Question: What about the half-life ([2]; dogs, read-out: terminal half-life, range) of the same molecule?
Answer: 14.2 to 20.4 days

Question: What about the “live ticks, geometric mean, Group 2” value (Rhipicephalus sanguineus [3]; Day 23, oral 250/35/600 μg/kg regimen) of the same molecule?
Answer: 16.2

Question: What about the “live ticks, geometric mean, Group 2” value (Rhipicephalus sanguineus [3]; Day 31, oral 250/35/600 μg/kg regimen) of the same molecule?
Answer: 13.3
